Reference: patent publication US20180201592A1, “2-AMINO-1,3,4-THIADIAZINE AND 2-AMINO-1,3,4-OXADIAZINE BASED ANTIFUNGAL AGENTS” (F2G Limited, priority 2015, published 2018)
In brackets after ≈: the same amount, converted by molar mass. Read-outs that look alike come from different tables or passages of the source.

Legend:
A. fumigatus 210 = assay: Minimum inhibitory concentration, YAG medium; format: cell-based, Aspergillus fumigatus; conditions: banded MIC grade; for MIC: Aspergillus fumigatus, 210, YAG media
Method in brief: (§1)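 Spores from 5-day Sabouraud agar cultures were suspended in YAG medium (1% glucose, 1% ammonium chloride, 0.5% yeast extract) at 1-2×10^4 cfu/mL and exposed to doubling dilutions of compound (50-0.05 mg/L) for 24 hrs at 35° C. MIC was the lowest concentration giving >70% growth inhibition by OD485 versus drug-free control.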

Aspergillus fumigatus = assay: Minimum inhibitory concentration, YAG medium; format: cell-based; conditions: banded MIC grade; for MIC: Aspergillus fumigatus, YAG media
Method in brief: as §1

Aspergillus niger = assay: Minimum inhibitory concentration, YAG medium; format: cell-based; conditions: banded MIC grade; for MIC: Aspergillus niger, YAG media
Method in brief: (§2)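 Growth inhibition was read as absorbance at 485 nm after spores of Aspergillus spp. were exposed for 24 hrs at 35° C to doubling dilutions of the compound. Dilutions were made in water starting from a 5 mg/mL DMSO stock, and MIC values were expressed in mg/L.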

Aspergillus flavus = assay: Minimum inhibitory concentration, YAG medium; format: cell-based; conditions: banded MIC grade; for MIC: Aspergillus flavus, YAG media
Method in brief: as §2

Aspergillus terreus = assay: Minimum inhibitory concentration, YAG medium; format: cell-based; conditions: banded MIC grade; for MIC: Aspergillus terreus, YAG media
Method in brief: as §2

C. albicans = assay: Minimum inhibitory concentration, RPMI medium; format: cell-based; conditions: banded MIC grade; for MIC: Candida albicans, RPMI media
Method in brief: (§3)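 Growth inhibition was judged from optical density at 485 nm per well after 24-48 hrs at 35° C. Test compound came from a 5 mg/mL DMSO stock, serially doubled in water before testing in RPMI 1640.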

C. parapsilosis = assay: Minimum inhibitory concentration, RPMI medium; format: cell-based; conditions: banded MIC grade; for MIC: Lodderomyces parapsilosis, RPMI media
Method in brief: as §3

C. tropicalis = assay: Minimum inhibitory concentration, RPMI medium; format: cell-based; conditions: banded MIC grade; for MIC: Candida tropicalis, RPMI media
Method in brief: as §3

A. terreus 49 = assay: Minimum inhibitory concentration, YAG medium; format: cell-based, Aspergillus terreus; conditions: banded MIC grade; for MIC: Aspergillus terreus, 49, YAG media
Method in brief: as §2

[1] = read-out: MIC grade C. ALBICANS
[2] = read-out: MIC grade, C. ALBICANS, RPMI media
[3] = read-out: MIC grade C. PARAPSILOSIS
[4] = read-out: MIC grade, C. PARAPSILOSIS, RPMI media

## CN1N=C(N)SC=C1c1ccc(C#N)cc1 [4-(2-amino-4-methyl-1,3,4-thiadiazin-5-yl)benzonitrile]
A. fumigatus 210
  MIC: < 0.2 µg/mL
Aspergillus fumigatus
  MIC: 0.2 to 1 µg/mL (≈ 0.868 to 4.34 µM)
Aspergillus niger
  MIC: < 0.2 µg/mL
Aspergillus flavus
  MIC: < 0.2 µg/mL
Aspergillus terreus
  MIC: < 0.2 µg/mL
C. albicans; [1]
  MIC: < 1 µg/mL
C. albicans; [2]
  MIC: 1 to 5 µg/mL (≈ 4.34 to 21.7 µM)
C. parapsilosis; [3]
  MIC: 1 to 5 µg/mL (≈ 4.34 to 21.7 µM)
C. parapsilosis; [4]
  MIC: 1 to 5 µg/mL (≈ 4.34 to 21.7 µM)
C. tropicalis
  MIC: 5 to 20 µg/mL (≈ 21.7 to 86.8 µM)
A. terreus 49
  MIC: < 0.2 µg/mL

## COCCCCCN1N=C(N)SC=C1C [4-(5-methoxypentyl)-5-methyl-1,3,4-thiadiazin-2-amine]
A. fumigatus 210
  MIC: 1 to 5 µg/mL (≈ 4.36 to 21.8 µM)
Aspergillus fumigatus
  MIC: ≥ 5 µg/mL
Aspergillus niger
  MIC: ≥ 5 µg/mL
Aspergillus flavus
  MIC: 1 to 5 µg/mL (≈ 4.36 to 21.8 µM)
Aspergillus terreus
  MIC: 1 to 5 µg/mL (≈ 4.36 to 21.8 µM)
C. albicans; [1]
  MIC: ≥ 20 µg/mL
C. albicans; [2]
  MIC: ≥ 20 µg/mL
C. parapsilosis; [3]
  MIC: ≥ 20 µg/mL
C. parapsilosis; [4]
  MIC: 5 to 20 µg/mL (≈ 21.8 to 87.2 µM)
C. tropicalis
  MIC: ≥ 20 µg/mL
A. terreus 49
  MIC: 1 to 5 µg/mL (≈ 4.36 to 21.8 µM)

## Cc1ccc(C2=CSC(N)=NN2C)cc1 [4-methyl-5-(p-tolyl)-1,3,4-thiadiazin-2-amine]
A. fumigatus 210
  MIC: < 0.2 µg/mL
Aspergillus fumigatus
  MIC: < 0.2 µg/mL
Aspergillus niger
  MIC: 0.2 to 1 µg/mL (≈ 0.912 to 4.56 µM)
Aspergillus flavus
  MIC: 0.2 to 1 µg/mL (≈ 0.912 to 4.56 µM)
Aspergillus terreus
  MIC: < 0.2 µg/mL
C. albicans; [1]
  MIC: < 1 µg/mL
C. albicans; [2]
  MIC: 5 to 20 µg/mL (≈ 22.8 to 91.2 µM)
C. parapsilosis; [3]
  MIC: ≥ 20 µg/mL
C. parapsilosis; [4]
  MIC: 1 to 5 µg/mL (≈ 4.56 to 22.8 µM)
C. tropicalis
  MIC: ≥ 20 µg/mL
A. terreus 49
  MIC: < 0.2 µg/mL

## CN1N=C(N)SC=C1c1ccc(Cl)c(Cl)c1 [5-(3,4-dichlorophenyl)-4-methyl-1,3,4-thiadiazin-2-amine]
A. fumigatus 210
  MIC: 1 to 5 µg/mL (≈ 3.65 to 18.2 µM)
Aspergillus fumigatus
  MIC: 1 to 5 µg/mL (≈ 3.65 to 18.2 µM)
Aspergillus niger
  MIC: 1 to 5 µg/mL (≈ 3.65 to 18.2 µM)
Aspergillus flavus
  MIC: ≥ 5 µg/mL
Aspergillus terreus
  MIC: 1 to 5 µg/mL (≈ 3.65 to 18.2 µM)
C. albicans; [1]
  MIC: 5 to 20 µg/mL (≈ 18.2 to 72.9 µM)
C. albicans; [2]
  MIC: ≥ 20 µg/mL
C. parapsilosis; [3]
  MIC: ≥ 20 µg/mL
C. parapsilosis; [4]
  MIC: ≥ 20 µg/mL
C. tropicalis
  MIC: ≥ 20 µg/mL
A. terreus 49
  MIC: 0.2 to 1 µg/mL (≈ 0.729 to 3.65 µM)

## CCCCOc1ccc(C2=CSC(N)=NN2C)cc1 [5-(4-butoxyphenyl)-4-methyl-1,3,4-thiadiazin-2-amine]
A. fumigatus 210
  MIC: < 0.2 µg/mL
Aspergillus fumigatus
  MIC: < 0.2 µg/mL
Aspergillus niger
  MIC: < 0.2 µg/mL
Aspergillus flavus
  MIC: < 0.2 µg/mL
Aspergillus terreus
  MIC: 0.2 to 1 µg/mL (≈ 0.721 to 3.6 µM)
C. albicans; [1]
  MIC: 1 to 5 µg/mL (≈ 3.6 to 18 µM)
C. albicans; [2]
  MIC: ≥ 20 µg/mL
C. parapsilosis; [3]
  MIC: < 1 µg/mL
C. parapsilosis; [4]
  MIC: 1 to 5 µg/mL (≈ 3.6 to 18 µM)
C. tropicalis
  MIC: 1 to 5 µg/mL (≈ 3.6 to 18 µM)
A. terreus 49
  MIC: 0.2 to 1 µg/mL (≈ 0.721 to 3.6 µM)

## CN1N=C(N)SC=C1c1ccc(Cl)cc1 [5-(4-chlorophenyl)-4-methyl-1,3,4-thiadiazin-2-amine]
A. fumigatus 210
  MIC: < 0.2 µg/mL
Aspergillus fumigatus
  MIC: < 0.2 µg/mL
Aspergillus niger
  MIC: < 0.2 µg/mL
Aspergillus flavus
  MIC: < 0.2 µg/mL
Aspergillus terreus
  MIC: < 0.2 µg/mL
C. albicans; [1]
  MIC: 1 to 5 µg/mL (≈ 4.17 to 20.9 µM)
C. albicans; [2]
  MIC: 1 to 5 µg/mL (≈ 4.17 to 20.9 µM)
C. parapsilosis; [3]
  MIC: < 1 µg/mL
C. parapsilosis; [4]
  MIC: < 1 µg/mL
C. tropicalis
  MIC: 5 to 20 µg/mL (≈ 20.9 to 83.4 µM)
A. terreus 49
  MIC: < 0.2 µg/mL

## COc1ccc(C2=CSC(N)=NN2C)cc1 [5-(4-methoxyphenyl)-4-methyl-1,3,4-thiadiazin-2-amine]
A. fumigatus 210
  MIC: < 0.2 µg/mL
Aspergillus fumigatus
  MIC: < 0.2 µg/mL
Aspergillus niger
  MIC: < 0.2 µg/mL
Aspergillus flavus
  MIC: < 0.2 µg/mL
Aspergillus terreus
  MIC: < 0.2 µg/mL
C. albicans; [1]
  MIC: < 1 µg/mL
C. albicans; [2]
  MIC: < 1 µg/mL
C. parapsilosis; [3]
  MIC: < 1 µg/mL
C. parapsilosis; [4]
  MIC: < 1 µg/mL
C. tropicalis
  MIC: 1 to 5 µg/mL (≈ 4.25 to 21.2 µM)
A. terreus 49
  MIC: < 0.2 µg/mL

## CN1N=C(N)SC=C1c1cc2ccccc2o1 [5-(benzofuran-2-yl)-4-methyl-1,3,4-thiadiazin-2-amine]
A. fumigatus 210
  MIC: 0.2 to 1 µg/mL (≈ 0.815 to 4.08 µM)
Aspergillus fumigatus
  MIC: 1 to 5 µg/mL (≈ 4.08 to 20.4 µM)
Aspergillus niger
  MIC: 1 to 5 µg/mL (≈ 4.08 to 20.4 µM)
Aspergillus flavus
  MIC: 1 to 5 µg/mL (≈ 4.08 to 20.4 µM)
Aspergillus terreus
  MIC: 0.2 to 1 µg/mL (≈ 0.815 to 4.08 µM)
C. albicans; [1]
  MIC: 5 to 20 µg/mL (≈ 20.4 to 81.5 µM)
C. albicans; [2]
  MIC: ≥ 20 µg/mL
C. parapsilosis; [3]
  MIC: 5 to 20 µg/mL (≈ 20.4 to 81.5 µM)
C. parapsilosis; [4]
  MIC: ≥ 20 µg/mL
C. tropicalis
  MIC: ≥ 20 µg/mL
A. terreus 49
  MIC: 0.2 to 1 µg/mL (≈ 0.815 to 4.08 µM)

## CCCCCCCC1=CSC(N)=NN1 [5-heptyl-4~{H}-1,3,4-thiadiazin-2-amine]
A. fumigatus 210
  MIC grade, A. FUMIGATUS 210, YAG media: 4 (4: <0.2 mg/L)
Aspergillus fumigatus
  MIC grade, A. FUMIGATUS, YAG media: 4 (4: <0.2 mg/L)
Aspergillus niger
  MIC grade, A. NIGER, YAG media: 4 (4: <0.2 mg/L)
Aspergillus flavus
  MIC grade, A. FLAVUS, YAG media: 4 (4: <0.2 mg/L)
Aspergillus terreus
  MIC grade, A. TERREUS, YAG media: 4 (4: <0.2 mg/L)
C. albicans
  MIC grade, C. ALBICANS, RPMI media: 3 (3: 1-5 mg/L)
C. parapsilosis
  MIC grade, C. PARAPSILOSIS, RPMI media: 3 (3: 1-5 mg/L)
C. tropicalis
  MIC grade, C. TROPICALIS, RPMI media: 3 (3: 1-5 mg/L)
A. terreus 49
  MIC grade, A. TERREUS 49, YAG media: 3 (3: 0.2-1 mg/L)
